In patent publication EP4796130A1, “ANTI-TISSUE FACTOR ANTIBODY-DRUG CONJUGATE COMPRISING CAMPTOTHECIN DERIVATIVE” (Celltrion, Inc., priority 2023, dated 2025):
Values joined by “and” are separate entries in the source; they are usually repeats but may differ in a detail not shown here. Identical values can stand only once.

Tests used:
[1] = tested on: MCF-7 (a breast cancer cell line); format: cell-based; conditions: 6 days incubation
[2] = tested on: KYSE520 (human esophageal cancer xenograft model); assay: In vivo antitumor efficacy, KYSE520 xenograft model; set-up: species or system BALB/c nude mice; conditions: for Tumor Volume / Tumor Weights on Day 35: mean ± SEM; for T/Cweight / TGI: day 35 vs control group G1; for T/C: tumor volume on day 35 vs control group G1
[3] = tested on: HPAFII (human pancreatic cancer xenograft model); assay: In vivo antitumor efficacy, HPAFII xenograft model; set-up: species or system CB17 SCID mice; conditions: for Tumor Volume / Tumor Weights on Day 28: mean ± SEM; for T/Cweight / TGI: day 28 vs control group G1; for T/C: tumor volume on day 28 vs control group G1
[4] = one mouse in G5 (3 mg/kg i.v. QW x 3 weeks); day 18 after start of treatment; autopsied, no abnormalities found
From the text: Animal body weights were regularly monitored as an indirect measure of toxicity. […]

## Tivdak: ADC in which MMAE is conjugated to Tisotumab; purchased from Jupiter Research Service LLC; DAR 4
[1]
  IC50: 442 nM
[2]; 1 mg/kg i.v. QW x 3 weeks, day 0
  Tumor Volume: 175 ± 8 mm^3
[2]; 1 mg/kg i.v. QW x 3 weeks, day 4
  Tumor Volume: 279 ± 20 mm^3
[2]; 1 mg/kg i.v. QW x 3 weeks, day 7
  Tumor Volume: 360 ± 29 mm^3
[2]; 1 mg/kg i.v. QW x 3 weeks, day 11
  Tumor Volume: 489 ± 37 mm^3
[2]; 1 mg/kg i.v. QW x 3 weeks, day 14
  Tumor Volume: 672 ± 51 mm^3
[2]; 1 mg/kg i.v. QW x 3 weeks, day 18
  Tumor Volume: 771 ± 64 mm^3
[2]; 1 mg/kg i.v. QW x 3 weeks, day 21
  Tumor Volume: 865 ± 75 mm^3
[2]; 1 mg/kg i.v. QW x 3 weeks, day 25
  Tumor Volume: 1,168 ± 101 mm^3
[2]; 1 mg/kg i.v. QW x 3 weeks, day 28
  Tumor Volume: 1,497 ± 121 mm^3
[2]; 1 mg/kg i.v. QW x 3 weeks, day 32
  Tumor Volume: 1,634 ± 126 mm^3
[2]; 1 mg/kg i.v. QW x 3 weeks, day 35
  Tumor Volume: 1,893 ± 166 mm^3
[2]; 1 mg/kg i.v. QW x 3 weeks
  T/Cweight: 86.67%
  TGI: 13.03%
  Tumor Weights on Day 35: 1.869 ± 0.138 g
  T/C: 88.03%
[2]; 3 mg/kg i.v. QW x 3 weeks, day 0
  Tumor Volume: 175 ± 8 mm^3
[2]; 3 mg/kg i.v. QW x 3 weeks, day 4
  Tumor Volume: 241 ± 23 mm^3
[2]; 3 mg/kg i.v. QW x 3 weeks, day 7
  Tumor Volume: 279 ± 24 mm^3
[2]; 3 mg/kg i.v. QW x 3 weeks, day 11
  Tumor Volume: 281 ± 31 mm^3
[2]; 3 mg/kg i.v. QW x 3 weeks, day 14
  Tumor Volume: 270 ± 31 mm^3
[2]; 3 mg/kg i.v. QW x 3 weeks, day 18
  Tumor Volume: 174 ± 17 mm^3
[2]; 3 mg/kg i.v. QW x 3 weeks, day 21
  Tumor Volume: 154 ± 17 (n = 9)^c mm^3
[2]; 3 mg/kg i.v. QW x 3 weeks, day 25
  Tumor Volume: 142 ± 15(n = 9) mm^3
[2]; 3 mg/kg i.v. QW x 3 weeks, day 28
  Tumor Volume: 129 ± 16 (n = 9) mm^3
[2]; 3 mg/kg i.v. QW x 3 weeks, day 32
  Tumor Volume: 115 ± 16(n = 9) mm^3
[2]; 3 mg/kg i.v. QW x 3 weeks, day 35
  Tumor Volume: 99 mm^3 and 99 ± 14 (n = 9) mm^3 and 99 ± 14 mm^3
[2]; 3 mg/kg i.v. QW x 3 weeks
  T/Cweight: 4.12%
  TGI: 103.89%
  Tumor Weights on Day 35: 0.089 ± 0.013 g
  T/C: 4.58%
[2]; 10 mg/kg i.v. QW x 3 weeks, day 0
  Tumor Volume: 175 ± 8 mm^3
[2]; 10 mg/kg i.v. QW x 3 weeks, day 4
  Tumor Volume: 243 ± 22 mm^3
[2]; 10 mg/kg i.v. QW x 3 weeks, day 7
  Tumor Volume: 259 ± 24 mm^3
[2]; 10 mg/kg i.v. QW x 3 weeks, day 11
  Tumor Volume: 234 ± 23 mm^3
[2]; 10 mg/kg i.v. QW x 3 weeks, day 14
  Tumor Volume: 196 ± 16 mm^3
[2]; 10 mg/kg i.v. QW x 3 weeks, day 18
  Tumor Volume: 122 ± 11 mm^3
[2]; 10 mg/kg i.v. QW x 3 weeks, day 21
  Tumor Volume: 101 ± 7 mm^3
[2]; 10 mg/kg i.v. QW x 3 weeks, day 25
  Tumor Volume: 88 ± 7 mm^3
[2]; 10 mg/kg i.v. QW x 3 weeks, day 28
  Tumor Volume: 69 ± 5 mm^3
[2]; 10 mg/kg i.v. QW x 3 weeks, day 32
  Tumor Volume: 58 ± 5 mm^3
[2]; 10 mg/kg i.v. QW x 3 weeks, day 35
  Tumor Volume: 45 mm^3 and 45 ± 6 mm^3
[2]; 10 mg/kg i.v. QW x 3 weeks
  T/Cweight: 1.93%
  TGI: 106.62%
  Tumor Weights on Day 35: 0.042 ± 0.004 g
  T/C: 2.08%
[3]; 0.3 mg/kg i.v. QW × 3, day 0
  Tumor Volume: 235 ± 17 mm^3
[3]; 0.3 mg/kg i.v. QW × 3, day 4
  Tumor Volume: 313 ± 34 mm^3
[3]; 0.3 mg/kg i.v. QW × 3, day 7
  Tumor Volume: 361 ± 49 mm^3
[3]; 0.3 mg/kg i.v. QW × 3, day 11
  Tumor Volume: 476 ± 64 mm^3
[3]; 0.3 mg/kg i.v. QW × 3, day 14
  Tumor Volume: 576 ± 69 mm^3
[3]; 0.3 mg/kg i.v. QW × 3, day 18
  Tumor Volume: 737 ± 91 mm^3
[3]; 0.3 mg/kg i.v. QW × 3, day 21
  Tumor Volume: 934 ± 113 mm^3
[3]; 0.3 mg/kg i.v. QW × 3, day 25
  Tumor Volume: 1,219 ± 141 mm^3
[3]; 0.3 mg/kg i.v. QW × 3, day 28
  Tumor Volume: 1,607 ± 144 mm^3
[3]; 0.3 mg/kg i.v. QW × 3
  T/Cweight: 68.36%
  TGI: 35.24%
  Tumor Weights on Day 28: 1.461 ± 0.146 g
  T/C: 68.29%
[3]; 1 mg/kg i.v. QW × 1, day 0
  Tumor Volume: 235 ± 17 mm^3
[3]; 1 mg/kg i.v. QW × 1, day 4
  Tumor Volume: 217 ± 16 mm^3
[3]; 1 mg/kg i.v. QW × 1, day 7
  Tumor Volume: 141 ± 16 mm^3
[3]; 1 mg/kg i.v. QW × 1, day 11
  Tumor Volume: 87 ± 9 mm^3
[3]; 1 mg/kg i.v. QW × 1, day 14
  Tumor Volume: 103 ± 14 mm^3
[3]; 1 mg/kg i.v. QW × 1, day 18
  Tumor Volume: 161 ± 31 mm^3
[3]; 1 mg/kg i.v. QW × 1, day 21
  Tumor Volume: 213 ± 34 mm^3
[3]; 1 mg/kg i.v. QW × 1, day 25
  Tumor Volume: 344 ± 49 mm^3
[3]; 1 mg/kg i.v. QW × 1, day 28
  Tumor Volume: 486 mm^3 and 486 ± 73 mm^3
[3]; 1 mg/kg i.v. QW × 1
  T/Cweight: 21.23%
  TGI: 88.15%
  Tumor Weights on Day 28: 0.454 ± 0.088 g
  T/C: 20.67%
[3]; 1 mg/kg i.v. QW × 3, day 0
  Tumor Volume: 235 ± 17 mm^3
[3]; 1 mg/kg i.v. QW × 3, day 4
  Tumor Volume: 190 ± 12 mm^3
[3]; 1 mg/kg i.v. QW × 3, day 7
  Tumor Volume: 124 ± 11 mm^3
[3]; 1 mg/kg i.v. QW × 3, day 11
  Tumor Volume: 85 ± 9 mm^3
[3]; 1 mg/kg i.v. QW × 3, day 14
  Tumor Volume: 70 ± 8 mm^3
[3]; 1 mg/kg i.v. QW × 3, day 18
  Tumor Volume: 54 ± 6 mm^3
[3]; 1 mg/kg i.v. QW × 3, day 21
  Tumor Volume: 40 ± 4 mm^3
[3]; 1 mg/kg i.v. QW × 3, day 25
  Tumor Volume: 33 ± 4 mm^3
[3]; 1 mg/kg i.v. QW × 3, day 28
  Tumor Volume: 26 mm^3 and 26 ± 3 mm^3
[3]; 1 mg/kg i.v. QW × 3
  T/Cweight: 1.03%
  TGI: 109.91%
  Tumor Weights on Day 28: 0.022 ± 0.003 g
  T/C: 1.09%
[3]; 3 mg/kg i.v. QW × 1, day 0
  Tumor Volume: 235 ± 17 mm^3
[3]; 3 mg/kg i.v. QW × 1, day 4
  Tumor Volume: 216 ± 19 mm^3
[3]; 3 mg/kg i.v. QW × 1, day 7
  Tumor Volume: 128 ± 10 mm^3
[3]; 3 mg/kg i.v. QW × 1, day 11
  Tumor Volume: 69 ± 8 mm^3
[3]; 3 mg/kg i.v. QW × 1, day 14
  Tumor Volume: 56 ± 4 mm^3
[3]; 3 mg/kg i.v. QW × 1, day 18
  Tumor Volume: 39 ± 3 mm^3
[3]; 3 mg/kg i.v. QW × 1, day 21
  Tumor Volume: 30 ± 2 mm^3
[3]; 3 mg/kg i.v. QW × 1, day 25
  Tumor Volume: 26 ± 2 mm^3
[3]; 3 mg/kg i.v. QW × 1, day 28
  Tumor Volume: 19 mm^3 and 19 ± 1 mm^3
[3]; 3 mg/kg i.v. QW × 1
  T/Cweight: 0.54%
  TGI: 110.22%
  Tumor Weights on Day 28: 0.012 ± 0.001 g
  T/C: 0.80%
[4]
  body weight loss: more than 20%
